In data set [1] the target is Voltage-gated inwardly rectifying potassium channel KCNH2 (Homo sapiens, UniProt Q12809). Description: Inhibition of human ERG.
The nature of data set [2]: Solubility of the compound at pH 7.4. It is filed as physicochemical. Conditions: buffer.
The target in data set [3] is T1, Glucose-dependent insulinotropic receptor (Homo sapiens, UniProt Q8TDV5).
T1 sequence (Q8TDV5 whole entry): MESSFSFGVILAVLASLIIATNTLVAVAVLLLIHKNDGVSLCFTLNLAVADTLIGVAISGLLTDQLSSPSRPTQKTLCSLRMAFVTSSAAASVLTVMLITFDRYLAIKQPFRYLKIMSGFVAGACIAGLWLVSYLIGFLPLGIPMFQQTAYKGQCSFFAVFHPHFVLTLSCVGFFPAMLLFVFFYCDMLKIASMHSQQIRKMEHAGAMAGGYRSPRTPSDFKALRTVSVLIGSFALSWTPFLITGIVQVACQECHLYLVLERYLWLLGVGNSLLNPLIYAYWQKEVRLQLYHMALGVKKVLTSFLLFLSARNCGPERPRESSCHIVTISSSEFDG
Description: Agonist activity at GPR119 (unknown origin). It is filed as functional.

Data set [4] is described as follows: Apparent permeability in MDCK cells. It is filed as ADME, cell-based, Canis lupus familiaris. As to conditions: dog.

In brackets after ≈: the same amount, converted by molar mass.

Chain of Voltage-gated inwardly rectifying potassium channel KCNH2 (Q12809 whole entry): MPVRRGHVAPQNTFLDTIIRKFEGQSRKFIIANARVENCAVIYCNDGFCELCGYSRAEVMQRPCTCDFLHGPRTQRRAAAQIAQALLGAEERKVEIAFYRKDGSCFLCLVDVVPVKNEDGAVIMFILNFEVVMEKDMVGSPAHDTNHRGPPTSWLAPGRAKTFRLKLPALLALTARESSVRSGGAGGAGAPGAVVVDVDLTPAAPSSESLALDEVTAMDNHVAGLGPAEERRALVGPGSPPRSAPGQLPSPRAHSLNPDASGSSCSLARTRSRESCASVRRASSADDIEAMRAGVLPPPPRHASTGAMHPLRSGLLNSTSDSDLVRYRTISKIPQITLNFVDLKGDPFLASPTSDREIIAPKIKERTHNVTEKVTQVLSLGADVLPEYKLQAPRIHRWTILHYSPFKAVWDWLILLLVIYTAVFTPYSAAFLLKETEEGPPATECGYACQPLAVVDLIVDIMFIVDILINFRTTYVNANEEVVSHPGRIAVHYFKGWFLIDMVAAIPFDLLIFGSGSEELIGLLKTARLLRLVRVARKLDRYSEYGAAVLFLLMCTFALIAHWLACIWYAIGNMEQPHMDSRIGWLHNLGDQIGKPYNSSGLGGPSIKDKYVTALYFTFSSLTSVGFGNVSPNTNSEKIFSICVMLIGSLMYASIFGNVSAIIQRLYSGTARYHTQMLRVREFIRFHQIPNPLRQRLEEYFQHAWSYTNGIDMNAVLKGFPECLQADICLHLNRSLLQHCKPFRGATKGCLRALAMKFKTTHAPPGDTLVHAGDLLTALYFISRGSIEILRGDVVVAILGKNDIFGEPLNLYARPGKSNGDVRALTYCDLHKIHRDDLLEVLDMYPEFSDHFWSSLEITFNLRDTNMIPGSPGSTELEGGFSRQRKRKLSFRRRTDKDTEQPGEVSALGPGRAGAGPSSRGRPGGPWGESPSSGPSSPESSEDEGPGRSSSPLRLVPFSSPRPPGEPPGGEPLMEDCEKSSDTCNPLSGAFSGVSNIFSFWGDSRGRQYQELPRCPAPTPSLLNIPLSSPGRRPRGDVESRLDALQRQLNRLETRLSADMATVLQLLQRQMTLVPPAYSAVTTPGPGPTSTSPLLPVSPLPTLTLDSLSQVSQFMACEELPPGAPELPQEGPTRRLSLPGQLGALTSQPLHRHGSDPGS

`N#Cc1cnccc1COc1cnc(N2CCN(c3noc(C(F)(F)F)n3)CC2)nc1` gave an IC50 in data set [1] of 6.31 µM. In data set [2], this compound came in with a solubility of 3.1 µM (≈ 1.34 µg/mL). This compound showed a concentration giving a half-maximal response (EC50) in data set [3] of 0.002 µM.

As for `Cc1nc(C)c(-c2ccc(-c3ccc([C@H](C)C(=O)O)cc3Cl)c(F)c2)nc1C(N)=O`, in data set [4], the Papp was determined as 14 ×10⁻⁶ cm/s.

On to `Cc1nc(C)c(-c2ccc(-c3ccc(CC(=O)O)cc3)c(Cl)c2)nc1C(N)=O`, for which the Papp in data set [4] amounted to 7.4 ×10⁻⁶ cm/s.

On to `N#Cc1cnccc1COc1cnc(N2CCN(c3nc(C(F)(F)F)no3)CC2)nc1`, for which half-maximal inhibition in data set [1] (IC50) required 6.31 µM. In data set [2], this compound gave a solubility of 4800 µM (≈ 2080 µg/mL). In data set [3], this compound gave a concentration for a half-maximal effect (EC50) of 0.00501 µM.

For the compound `N#Cc1cnccc1COc1cnc(N2CCN(c3nnc(C(F)(F)F)o3)CC2)nc1`, half-maximal inhibition in data set [1] (IC50) required 20 µM. Moreover, in data set [2], the solubility was 120 µM (≈ 51.9 µg/mL). In addition, the EC50 in data set [3] was 0.0251 µM.

These data come from ChEMBL document CHEMBL4219225, “Practical application of ligand efficiency metrics in lead optimisation” (Bioorg Med Chem, 2018).
